Assay results published in PubChem BioAssay AID792 (PCMD, 2007).
Records with an inconclusive call do not appear. Activity calls are given as the source filed them. How the calls were made is not given here.

Molecular target: S. cerevisiae eIF2B mutant, luciferase reporter luminescence
Assay: potency on yeast eIF2B luminescence signal – S. cerevisiae, mutant, wild-type, growth, dose response (AID 792)
[1] = measured here: mutant yeast growth
[2] = S. cerevisiae wild-type, luminescence

Row | SMILES | IC50 | IC50 [1] [µM] | IC50 [2] [µM]
1 | CCOC(=O)c1ccc(N2C(=O)C=CC2=O)cc1 | inactive | 6.02 | –
2 | CCCn1nnc(NC(=O)C(c2ccccc2)c2ccccc2)n1 | > 100 µM (inactive) | > 100 | –
3 | COc1ccc2[nH]c(=O)c(CN(C(=O)c3cccnc3)c3ccc(C)cc3)cc2c1 | > 100 µM (inactive) | > 100 | –
4 | CCCC(=O)Nc1sc(C(=O)OC)c(C)c1C(N)=O | > 100 µM (inactive) | > 100 | –
5 | COc1ccc(OC)c(N/C(C)=C/C(=O)c2ccc(C)o2)c1 | > 100 µM (inactive) | > 100 | > 100
6 | CCC(C(=O)NCc1ccc(OC)cc1)n1nc(C)n2c(cc3occc32)c1=O (stereo not given) | > 100 µM (inactive) | > 100 | –
7 | CCOC(=O)c1c(-c2ccco2)csc1NC(=O)CSc1nnc(N)s1 | > 100 µM (inactive) | > 100 | –
8 | Cc1ccc(C)c(N2CCN(C(=O)c3ccc(CS(=O)(=O)c4ccccc4C)o3)CC2)c1 | > 100 µM (inactive) | > 100 | –
9 | Cc1ccc(SCc2cc(=O)[nH]c(N3CCN(Cc4ccc5c(c4)OCO5)CC3)n2)cc1 | > 100 µM (inactive) | > 100 | –
10 | COc1cccc(-n2ccnc2SCC(=O)Nc2cc(OC)ccc2OC)c1 | > 100 µM (inactive) | > 100 | –
11 | CCOC(=O)Cn1c(=O)c2c(nc3n2CCN3Cc2ccccc2)n(C)c1=O | > 100 µM (inactive) | > 100 | –
12 | COc1ccc(C2NC(=O)NC(C)=C2C(C)=O)cc1 (stereo not given) | > 100 µM (inactive) | > 100 | –
13 | COc1ccc(-c2cc3nc(C)cc(N)n3n2)cc1 | inactive | > 100 | 3.87
14 | Cc1cc2nnc(SCC(=O)NCc3cccs3)n2c2ccccc12 | > 100 µM (inactive) | > 100 | –
15 | CCOC(=O)COc1ccc(S(=O)(=O)NCc2ccco2)cc1 | > 100 µM (inactive) | > 100 | –
16 | COc1ccc(C2=CSC3=NCCN23)cc1F | > 100 µM (inactive) | > 100 | –
17 | CC(=O)Nc1cc(C(F)(F)F)ccc1OCCOc1ccccc1 | > 100 µM (inactive) | > 100 | –
18 | CC(=O)c1cnc2c(-c3ccc(Cl)cc3)c(C)nn2c1C | > 100 µM (inactive) | > 100 | –
19 | O=C1c2ccncc2C(=O)N1C1CCCCC1 | > 100 µM (inactive) | > 100 | –
20 | CC(C)Cc1nnc(NC(=O)CC(=O)Nc2ccccc2C(=O)O)s1 | inactive | > 100 | 65.4
21 | COc1ccc(Cl)cc1C(=O)N1CCN(c2ccccn2)CC1 | > 100 µM (inactive) | > 100 | –

Row | SMILES | IC50 | IC50 [1] [µM] | IC50 [2] [µM]
22 | CCc1ccc2c(c1)C1(NN=C(c3ccc(C)cc3)S1)C(=O)N2 (stereo not given) | inactive | 99 | > 100
23 | CC(=O)c1cnc(Nc2nc(C)c3cc(C)c(C)cc3n2)nc1C | > 100 µM (inactive) | > 100 | –
24 | COc1ccc(OC)c(N(CC(=O)Nc2ccc(NC(C)=O)cc2)S(C)(=O)=O)c1 | > 100 µM (inactive) | > 100 | –
25 | Cc1nc(-c2cccc(S(=O)(=O)N3CC(C)CC(C)C3)c2)cs1 (stereo not given) | > 100 µM (inactive) | > 100 | –
26 | O=C1CC(O)(C(F)F)Oc2ccc3ccccc3c21 (stereo not given) | > 100 µM (inactive) | > 100 | –
27 | CCOC(=O)c1c(NC(=O)COC)sc2c1CCCC2 | > 100 µM (inactive) | > 100 | –
28 | CN(C)C(=O)Oc1ccc(OC(=O)c2ccccc2)cc1 | – | > 100 | –
29 | Cc1ccccc1OCc1nc2c3cnn(C)c3ncn2n1 | > 100 µM (inactive) | > 100 | –
30 | Cc1cc(=O)[nH]c(N=N/C(=N/Nc2ccc(O)cc2)c2ccccc2)n1 | inactive | > 100 | 45.2
31 | CCOC(=O)N1CCN(c2cc(NCCC(=O)O)c3c4c(onc24)-c2ccccc2C3=O)CC1 | > 100 µM (inactive) | – | –
32 | O=C(Nc1cccc(-c2cn3cccnc3n2)c1)c1ccc2c(c1)OCO2 | > 100 µM (inactive) | > 100 | –
33 | Cc1ccc(C(=O)Nc2ncc(C)s2)o1 | inactive | > 100 | 17.6
34 | Oc1ccccc1C1=Nc2ncnn2C(c2ccc(F)cc2)C1 (stereo not given) | > 100 µM (inactive) | > 100 | –
35 | Nn1cnnc1SC1CCCCC1NS(=O)(=O)c1ccccc1 (stereo not given) | > 100 µM (inactive) | > 100 | –
36 | CCC(C)c1ccc(OCC(=O)O)cc1 (stereo not given) | > 100 µM (inactive) | > 100 | –
37 | CCS(=O)(=O)N1CCCC(C(=O)NCCN(C)Cc2ccccc2)C1 (stereo not given) | > 100 µM (inactive) | > 100 | –
38 | Cc1cc2ncc(C(=O)Nc3ccccc3)c(C)n2n1 | > 100 µM (inactive) | > 100 | –
39 | O=C(N1CCOCC1)N1c2ccccc2CC(N2CCOCC2)c2ccccc21 (stereo not given) | > 100 µM (inactive) | > 100 | –
40 | CCOc1ccc(S(=O)(=O)N2CCC(C(N)=O)CC2)c2ccccc12 | > 100 µM (inactive) | > 100 | –
41 | COC(=O)Cn1c2ccc(OC)cc2c2nc3ccccc3nc21 | > 100 µM (inactive) | > 100 | –
42 | CS(=O)(=O)c1ccc2nc(NC(=O)C3C4C=CC(C4)C3C(=O)O)sc2c1 (stereo not given) | > 100 µM (inactive) | > 100 | –

Row | SMILES | IC50 | IC50 [1] [µM] | IC50 [2] [µM]
43 | CN1C(=O)NC(c2ccccc2)C2=C1CN(c1cccc(C(F)(F)F)c1)C2=O (stereo not given) | > 100 µM (inactive) | > 100 | –
44 | O=C(OCCn1cncn1)c1cc2ccccc2oc1=O | > 100 µM (inactive) | > 100 | –
45 | Cc1ccnc2nc(C(=O)Nc3ccc(N4CCOCC4)cc3)nn12 | inactive | > 100 | 11.1
46 | Cc1cc2c(cc1C)CSC(c1ccc(O)cc1)SC2 | > 100 µM (inactive) | > 100 | –
47 | O=C(CCC1COc2ccccc2O1)Nc1ccc(Cl)cn1 (stereo not given) | > 100 µM (inactive) | > 100 | –
48 | O=C(NC1CCCC1)C(c1ccsc1)N(Cc1ccco1)C(=O)Cc1cccs1 (stereo not given) | > 100 µM (inactive) | > 100 | –
49 | COc1ccc(S(=O)(=O)CCC(=O)N2c3ccccc3CC2C)cc1 (stereo not given) | > 100 µM (inactive) | > 100 | –
50 | O=c1c(Cl)c(N2CCCCC2)cnn1-c1nc2ccccc2[nH]1 | inactive | > 100 | 3.69
51 | CC(C)Oc1ccc(C(=O)O)c(C(=O)O)c1 | > 100 µM (inactive) | > 100 | –
52 | COc1ccccc1-n1cnnc1SCC(=O)c1cc(C)n(Cc2cccs2)c1C | > 100 µM (inactive) | > 100 | –
53 | Cn1c(/C(C#N)=C(\O)CN2CCN(Cc3ccccc3)CC2)nc2ccccc21 | > 100 µM (inactive) | > 100 | –
54 | CN1CCN(c2nc(N3CCN(CCO)CC3)nc3ccccc23)CC1 | > 100 µM (inactive) | > 100 | –
55 | O=C(c1ccco1)N1CCN(C(=O)c2ccccc2Oc2ccccc2)CC1 | > 100 µM (inactive) | > 100 | –
56 | COc1ccccc1NC(=O)CSc1nc(O)cc(=O)n1C | > 100 µM (inactive) | > 100 | –
57 | CCn1c(C)c(/C=N/Nc2nc3ccccc3s2)c2ccccc21 | > 100 µM (inactive) | > 100 | –
58 | O=C(CCN1CCN(Cc2ccccc2)CC1)Nc1cccc(Cl)c1 | > 100 µM (inactive) | > 100 | –
59 | Cc1cc(N)n2nc(-c3ccc(C(C)(C)C)cc3)cc2n1 | inactive | 30.1 | –
60 | N#CC(C(=O)OC1CCCCC1)c1nc2ccccc2nc1N1CCOCC1 (stereo not given) | > 100 µM (inactive) | > 100 | –
61 | Cc1ccc(N2CC(C(=O)Nc3ccccc3C(=O)NC3CCCCC3)CC2=O)cc1C (stereo not given) | > 100 µM (inactive) | > 100 | –
62 | CC(C)NC(=O)CCNS(=O)(=O)c1ccc(Br)cc1 | > 100 µM (inactive) | 24.2 | > 100
63 | COc1cc(/C=C2\C(=O)N(CCC#N)N=C2C)c(Br)cc1OC(C)C | > 100 µM (inactive) | > 100 | –

Row | SMILES | IC50 | IC50 [1] [µM] | IC50 [2] [µM]
64 | CCCCN1C(=O)CN(CCc2ccccc2)C(=O)C1c1ccc(OC)cc1 (stereo not given) | > 100 µM (inactive) | > 100 | –
65 | O=C(CC(C(=O)N1CCc2ccccc21)n1ccnc1)NCC1CCCO1 (stereo not given) | > 100 µM (inactive) | > 100 | –
66 | COc1ccccc1-c1nnc2sc(COc3ccc(Cl)cc3)nn12 | > 100 µM (inactive) | > 100 | –
67 | Cn1c(/N=C/c2c(O)ccc3ccccc23)nc2ccccc21 | > 100 µM (inactive) | > 100 | –
68 | Cc1ccc(CN(CC2CCCO2)C(=O)CN2C(=O)C(C(C)C)Oc3ccccc32)o1 (stereo not given) | inactive | 14.2 | > 100
69 | COC(=O)Cc1c(C)c2cc(Cl)c(OC(=O)c3ccco3)cc2oc1=O | > 100 µM (inactive) | > 100 | –
70 | CCOc1ccccc1N1CC(C(=O)N2CCc3ccccc32)CC1=O (stereo not given) | > 100 µM (inactive) | > 100 | –
71 | CSC1=NCCN1C(=O)c1cccc(C(F)(F)F)c1 | > 100 µM (inactive) | > 100 | –
72 | NC(=O)CSc1nnc(-c2ccco2)n1N | > 100 µM (inactive) | > 100 | –
73 | Fc1ccc2c(c1)nnn2C1CCN(Cc2nnnn2C2CCCCC2)CC1 | > 100 µM (inactive) | > 100 | –
74 | Cc1nn(C)c(C)c1CN(C)C(=O)c1cc2nc(-c3ccco3)cc(C(F)(F)F)n2n1 | > 100 µM (inactive) | > 100 | –
75 | C=CCN(C(=O)Cn1c(C(=O)OC)cc2oc(C)cc21)c1ccccc1 | > 100 µM (inactive) | > 100 | –
76 | CCOC(=O)C1CCN(c2ncnc3c2oc2ccccc23)CC1 | > 100 µM (inactive) | > 100 | –
77 | CCCOc1ccc(N2C(=O)CC(SC(=NCC)Nc3cccc(F)c3)C2=O)cc1 (stereo not given) | > 100 µM (inactive) | > 100 | –
78 | CC(NC(=O)CSc1nc2ccccc2c(=O)n1CCCO)c1ccccc1 (stereo not given) | > 100 µM (inactive) | > 100 | –
79 | CCN1CCN(c2cc(C(C)(C)C)nc3c(-c4ccccc4)c(C)nn23)CC1 | inactive | 15.8 | –
80 | Cn1c(=O)[nH]c(=O)c2c1nc(SCC(O)CO)n2Cc1ccccc1Cl (stereo not given) | > 100 µM (inactive) | > 100 | –
81 | Cc1ncc(CO)c2cc(C(N)=O)c(=Nc3ccccc3)oc12 | > 100 µM (inactive) | > 100 | –
